Experimental findings from patent US8987195B2 (priority 2012, dated 2015) are described below.

The target of this assay is HCV NS3/4A protease genotype 1b (Hepatitis C virus genotype 1b, UniProt P26663). Kind of assay: HCV NS3/4A protease time-resolved fluorescence (TRF) assay, Ki against genotype 1b. Type of assay: biochemical. Conditions: IC50 [gt-1b], NS3/4A protease TRF assay, genotype 1b enzyme 0.2 nM. The protocol:
Measuring NS3/4A Inhibitory Activity (Ki) Against Genotype 1b, Against A156T Mutants and Against Genotype 3a
One assay for measuring inhibitory activity is HCV NS3 protease time-resolved fluorescence (TRF) assay as described below and in Mao et al., Anal. Biochem. 373:1-8, 2008 and International Patent Application Publication WO 2006/102087. A NS3 protease assay can be performed, for example, in a final volume of 20 μl assay buffer containing 50 mM HEPES, pH 7.5, 150 mM NaCl, 15% glycerol, 0.15% TRITON X-100, 10 mM DTT, and 0.1% PEG 8000. NS3 and NS4A protease is pre-incubated with various concentrations of inhibitors in DMSO for 30 min. The reaction is initiated by adding the TRF peptide substrate (final concentration 25 nM). NS3 mediated hydrolysis of the substrate was run for 2.5 hours at room temperature. Product fluorescence is detected using A Pherastar Plus plate reader (BMG) or Envision (Perkin Elmer Life and Analytical Sciences with excitation at 340 nm and emission at 615 nm using the appropriate delay time optimized for the europium fluorescence probe. Testing concentrations of different enzyme forms are selected to result in a signal to background ratio (S/B) of 10-30. IC50 values are derived using a standard four-parameter fit to the data. Ki values are derived from IC50 values using the following formula, IC50=Ki(1+[S]/KM), Eqn (1), where [S] is the concentration of substrate peptide in the reaction and KM is the Michaelis constant. See P. Gallinari et al., 38 BIOCHEM. 5620-32 (1999); P. Gallinari et al., 72 J. VIROL. 6758-69 (1998); M. Taliani et al., 240 ANAL. BIOCHEM. 60-67 (1996); Mao et al., Analytical Biochemistry 373: 1-8, 2008.
The assay described above was run against genotype 1b at a concentration of 0.2 nM, against A156T mutant strains at a concentration of 0.4 nM, and against genotype 3a at a concentration of 0.025 nM.

With `COc1cc(Cl)c2nc(C(F)(F)F)c3c(c2c1)CC[C@]1(C[C@H]2C(=O)N[C@]4(C(=O)NS(=O)(=O)C5(C)CC5)C[C@H]4/C=C\CCCCC[C@H](NC(=O)OC(C)(C)C(F)(F)F)C(=O)N2C1)O3` [Example 400, 1,1,1-trifluoro-2-methylpropan-2-yl [(2R,6S,12Z,13aS,14aR,16aS)-7′-chloro-9′-methoxy-14a-{[(1-methylcyclopropyl)sulfonyl]carbamoyl}-5,16-dioxo-5′-(trifluoromethyl)-1,1′,2′,5,6,7,8,9,10,11,13a,14,14a,15,16,16a-hexadecahydrospiro[cyclopropa[e]pyrrolo[1,2-a][1,4]diazacyclopentadecine-2,3′-pyrano[2,3-c]quinolin]-6-yl]carbamate], the IC50 was determined as 52 pM.
Still for that read-out and setting: for `COc1cc(Cl)c2nc(C(F)(F)F)c3c(c2c1)CC[C@]1(C[C@H]2C(=O)N[C@]4(C(=O)NS(=O)(=O)C5(C)CC5)C[C@H]4/C=C\CCCCC[C@H](NC(=O)OCC(C)(C)C)C(=O)N2C1)O3` [Example 401, 2,2-dimethylpropyl [(2R,6S,12Z,13aS,14aR,16aS)-7′-chloro-9′-methoxy-14a-{[(1-methylcyclopropyl)sulfonyl]carbamoyl}-5,16-dioxo-5′-(trifluoromethyl)-1,1′,2′,5,6,7,8,9,10,11,13a,14,14a,15,16,16a-hexadecahydrospiro[cyclopropa[e]pyrrolo[1,2-a][1,4]diazacyclopentadecine-2,3′-pyrano[2,3-c]quinolin]-6-yl]carbamate] the value was 57 pM.
Take `COc1ccc2nc(C(F)F)c3c(c2c1)CC[C@]1(C[C@H]2C(=O)NC4(C(=O)NS(=O)(=O)C5(C)CC5)C[C@H]4/C=C\CCCCC[C@H](NC(=O)O[C@@H]4C[C@@H]5C[C@@H]5C4)C(=O)N2C1)O3` (stereo partly drawn) [Example 503, (1R,3r,5S)-bicyclo[3.1.0]hex-3-yl [(2R,6S,12Z,13aS,14aR,16aS)-5′-(difluoromethyl)-9′-methoxy-14a-{[(1-methylcyclopropyl)sulfonyl]carbamoyl}-5,16-dioxo-1,1′,2′,5,6,7,8,9,10,11,13a,14,14a,15,16,16a-hexadecahydrospiro[cyclopropa[e]pyrrolo[1,2-a][1,4]diazacyclopentadecine-2,3′-pyrano[2,3-c]quinolin]-6-yl]carbamate]: under “K+ salt”, the IC50 was 7 pM.
Same read-out and setting: for `COc1ccc2nc(C(F)F)c3c(c2c1)CC[C@]1(C[C@H]2C(=O)N[C@]4(C(=O)NS(=O)(=O)C5(C)CC5)C[C@H]4/C=C\CCCCC[C@H](NC(=O)OCC4CCC4)C(=O)N2C1)O3` [Example 504, cyclobutylmethyl [(2R,6S,12Z,13aS,14aR,16aS)-5′-(difluoromethyl)-9′-methoxy-14a-{[(1-methylcyclopropyl)sulfonyl]carbamoyl}-5,16-dioxo-1,1′,2′,5,6,7,8,9,10,11,13a,14,14a,15,16,16a-hexadecahydrospiro[cyclopropa[e]pyrrolo[1,2-a][1,4]diazacyclopentadecine-2,3′-pyrano[2,3-c]quinolin]-6-yl]carbamate] the value was 10 pM.
Consider `COc1ccc2nc(C(F)(F)F)c3c(c2c1)[C@](C)(O)C[C@]1(C[C@H]2C(=O)N[C@]4(C(=O)NS(=O)(=O)C5(C)CC5)C[C@H]4/C=C\CCCCC[C@H](NC(=O)OCC(C)C)C(=O)N2C1)O3` [Example 505, 2-methylpropyl [(1′R,2S,6S,12Z,13aS,14aR,16aS)-1′-hydroxy-9′-methoxy-1′-methyl-14a-{[(1-methylcyclopropyl)sulfonyl]carbamoyl}-5,16-dioxo-5′-(trifluoromethyl)-1,1′,2′,5,6,7,8,9,10,11,13a,14,14a,15,16,16a-hexadecahydrospiro[cyclopropa[e]pyrrolo[1,2-a][1,4]diazacyclopentadecine-2,3′-pyrano[2,3-c]quinolin]-6-yl]carbamate], for which the IC50 was 16 pM.
The same measure, in the same setting: in the case of `COc1ccc2nc(C(F)(F)F)c3c(c2c1)[C@](C)(O)C[C@]1(C[C@H]2C(=O)N[C@]4(C(=O)NS(=O)(=O)C5(C)CC5)C[C@H]4/C=C\CCCCC[C@H](NC(=O)OCC(C)(C)C)C(=O)N2C1)O3` [Example 506, 2,2-dimethylpropyl [(1′R,2S,6S,12Z,13aS,14aR,16aS)-1′-hydroxy-9′-methoxy-1′-methyl-14a-{[(1-methylcyclopropyl)sulfonyl]carbamoyl}-5,16-dioxo-5′-(trifluoromethyl)-1,1′,2′,5,6,7,8,9,10,11,13a,14,14a,15,16,16a-hexadecahydrospiro[cyclopropa[e]pyrrolo[1,2-a][1,4]diazacyclopentadecine-2,3′-pyrano[2,3-c]quinolin]-6-yl]carbamate] it was 15 pM.
As for `COc1ccc2nc(C(F)F)c3c(c2c1)CC[C@]1(C[C@H]2C(=O)N[C@]4(C(=O)NS(=O)(=O)C5(C)CC5)C[C@H]4/C=C\CCCCC[C@H](NC(=O)OC4CCC4)C(=O)N2C1)O3` [Example 508, cyclobutyl [(2R,6S,12Z,13aS,14aR,16aS)-5′-(difluoromethyl)-9′-methoxy-14a-{[(1-methylcyclopropyl)sulfonyl]carbamoyl}-5,16-dioxo-1,1′,2′,5,6,7,8,9,10,11,13a,14,14a,15,16,16a-hexadecahydrospiro[cyclopropa[e]pyrrolo[1,2-a][1,4]diazacyclopentadecine-2,3′-pyrano[2,3-c]quinolin]-6-yl]carbamate], the concentration for half-maximal inhibition (IC50) (K+ salt) was 4 pM.
Same read-out and setting: in the case of `CCc1nc2ccc(OCCN3CCOCC3)cc2c2c1O[C@]1(CC2)C[C@H]2C(=O)N[C@]3(C(=O)NS(=O)(=O)C4(C)CC4)C[C@H]3/C=C\CCCCC[C@H](NC(=O)OC3(C)CCC3)C(=O)N2C1` [Example 509, 1-methylcyclobutyl {(2R,6S,12Z,13aS,14aR,16aS)-5′-ethyl-14a-{[(1-methylcyclopropyl)sulfonyl]carbamoyl}-9′-[2-(morpholin-4-yl)ethoxy]-5,16-dioxo-1,1′,2′,5,6,7,8,9,10,11,13a,14,14a,15,16,16a-hexadecahydrospiro[cyclopropa[e]pyrrolo[1,2-a][1,4]diazacyclopentadecine-2,3′-pyrano[2,3-c]quinolin]-6-yl}carbamate] it was 6 pM; in that of `CCc1nc2ccc(OCCN3CCOCC3)cc2c2c1O[C@]1(CC2)C[C@H]2C(=O)N[C@]3(C(=O)NS(=O)(=O)C4(C)CC4)C[C@H]3/C=C\CCCCC[C@H](NC(=O)OCC(C)(C)C)C(=O)N2C1` [Example 510, 2,2-dimethylpropyl {(2R,6S,12Z,13aS,14aR,16aS)-5′-ethyl-14a-{[(1-methylcyclopropyl)sulfonyl]carbamoyl}-9′-[2-(morpholin-4-yl)ethoxy]-5,16-dioxo-1,1′,2′,5,6,7,8,9,10,11,13a,14,14a,15,16,16a-hexadecahydrospiro[cyclopropa[e]pyrrolo[1,2-a][1,4]diazacyclopentadecine-2,3′-pyrano[2,3-c]quinolin]-6-yl}carbamate], 4 pM.
Consider `CCc1nc2ccc(OCCCN3CCOCC3)cc2c2c1O[C@]1(CC2)C[C@H]2C(=O)N[C@]3(C(=O)NS(=O)(=O)C4(C)CC4)C[C@H]3/C=C\CCCCC[C@H](NC(=O)OCC(C)(C)C)C(=O)N2C1` [Example 521, 2,2-dimethylpropyl {(2R,6S,12Z,13aS,14aR,16aS)-5′-ethyl-14a-{[(1-methylcyclopropyl)sulfonyl]carbamoyl}-9′-[3-(morpholin-4-yl)propoxy]-5,16-dioxo-1,1′,2′,5,6,7,8,9,10,11,13a,14,14a,15,16,16a-hexadecahydrospiro[cyclopropa[e]pyrrolo[1,2-a][1,4]diazacyclopentadecine-2,3′-pyrano[2,3-c]quinolin]-6-yl}carbamate], for which the 50% inhibitory concentration (IC50) (HCl salt) is 4 pM.
Turning to `COCCCOc1ccc2nc(C(F)(F)F)c3c(c2c1)CC[C@]1(C[C@H]2C(=O)N[C@]4(C(=O)NS(=O)(=O)C5(C)CC5)C[C@H]4/C=C\CCCCC[C@H](NC(=O)OC4(C)CCC4)C(=O)N2C1)O3` [Example 523, 1-methylcyclobutyl [(2R,6S,12Z,13aS,14aR,16aS)-9′-(3-methoxypropoxy)-14a-{[(1-methylcyclopropyl)sulfonyl]carbamoyl}-5,16-dioxo-5′-(trifluoromethyl)-1,1′,2′,5,6,7,8,9,10,11,13a,14,14a,15,16,16a-hexadecahydrospiro[cyclopropa[e]pyrrolo[1,2-a][1,4]diazacyclopentadecine-2,3′-pyrano[2,3-c]quinolin]-6-yl]carbamate], the 50% inhibitory concentration (IC50) (K+ salt) turned out to be 9 pM.
